Values after ≈ are worked out from the molar mass of the structure shown. Values joined by “and” are separate entries in the source; they are usually repeats but may differ in a detail not shown here. Equal values may be shown once. Read-outs that look alike come from different tables or passages of the source.
Tests used:
B. subtilis [1] = assay: Synergy/antagonism two-drug combination assay, B. subtilis; type: cell-based, Bacillus subtilis; conditions: for FIC antibiotic / FIC Index / Mean FICI / FIC 7: B. subtilis; for FIC antibiotic: antibiotic in combination with 7, mean±SD duplicate; for FIC Index: combination of the antibiotic with 7, mean±SD; for MIC: Bacillus subtilis
S. aureus = assay: Synergy/antagonism two-drug combination assay, S. aureus; type: cell-based, Staphylococcus aureus; conditions: for FIC antibiotic / FIC Index / Mean FICI / FIC 7: S. aureus; for FIC antibiotic: antibiotic in combination with 7, mean±SD duplicate; for FIC Index: combination of the antibiotic with 7, mean±SD; for MIC: Staphylococcus aureus
B. subtilis [2] = assay: B. subtilis growth inhibition assay; type: cell-based, Bacillus subtilis; conditions: 12 hours at 37°C, OD600
SaUPPS = biological target: T1, SaUPPS (Staphylococcus aureus, UniProt P60477); assay: biochemical; type: biochemical
T1 sequence (P60477 1-256): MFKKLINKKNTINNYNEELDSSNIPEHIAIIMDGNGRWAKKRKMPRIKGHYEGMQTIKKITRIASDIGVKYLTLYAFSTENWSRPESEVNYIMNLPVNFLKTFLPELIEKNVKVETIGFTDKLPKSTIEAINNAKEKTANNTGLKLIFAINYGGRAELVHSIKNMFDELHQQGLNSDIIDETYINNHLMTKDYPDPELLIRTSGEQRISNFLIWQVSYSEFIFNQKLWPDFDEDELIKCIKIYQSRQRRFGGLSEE

NCI-H460 cells = assay: H460 cell toxicity; type: cell-based, human; conditions: 24 h, MTT
[3] = system: S. aureus and B. subtilis; assay: Synergy/antagonism assays, average over B. subtilis and S. aureus combinations; type: cell-based
[4] = system: Staphylococcus aureus and Bacillus subtilis; assay: Bacterial cell growth inhibition, bacterium not specified at the place; type: cell-based
B. subtilis [5] = conditions: earlier work of the authors, no reference given; cited from earlier work
E. coli = conditions: earlier work of the authors, no reference given; cited from earlier work
E. coli UPPS (EcUPPS) = conditions: read-out: IC50 EcUPPS; previous work ref 3b; cited from earlier work
[6] = biological target: EcUPPP (fusion hybrid of E. coli UPPP with Haloarcula marismortui bacteriorhodopsin) (UniProt P60932+Q5UXY6, D94N); type: biochemical; conditions: read-out: IC50 EcUPPP
[7] = 7 with inhibitors targeting cell wall biosynthesis
[8] = 7 with inhibitors targeting nucleic acids and protein biosynthesis

Sequence of EcUPPP (fusion hybrid of E. coli UPPP with Haloarcula marismortui bacteriorhodopsin) (P60932 whole entry, looked up, the tested form may be a part): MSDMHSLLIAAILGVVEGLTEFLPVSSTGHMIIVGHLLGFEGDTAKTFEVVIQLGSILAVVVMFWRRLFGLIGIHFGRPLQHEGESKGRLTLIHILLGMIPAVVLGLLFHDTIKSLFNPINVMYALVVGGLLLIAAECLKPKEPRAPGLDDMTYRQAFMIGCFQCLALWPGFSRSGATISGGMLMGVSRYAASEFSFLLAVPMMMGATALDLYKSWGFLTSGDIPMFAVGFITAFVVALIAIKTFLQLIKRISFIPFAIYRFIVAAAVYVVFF
Sequence of EcUPPP (fusion hybrid of E. coli UPPP with Haloarcula marismortui bacteriorhodopsin) (Q5UXY6 whole entry, looked up, stated change not applied, the tested form may be a part): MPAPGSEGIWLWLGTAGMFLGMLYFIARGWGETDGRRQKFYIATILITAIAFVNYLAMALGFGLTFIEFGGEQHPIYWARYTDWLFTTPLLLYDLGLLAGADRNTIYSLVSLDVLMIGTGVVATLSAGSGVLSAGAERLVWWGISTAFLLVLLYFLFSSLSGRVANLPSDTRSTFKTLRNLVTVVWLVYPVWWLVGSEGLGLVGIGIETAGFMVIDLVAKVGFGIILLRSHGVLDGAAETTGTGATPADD

For `COc1cc(Cc2cnc(N)nc2N)cc(OC)c1OC` [Trimethoprim, trimethoprim], the FIC antibiotic (B. subtilis [1]) was 0.66 ± 0.13, the “FIC Index” value (B. subtilis [1]) was 1.51 ± 0.32 and the MIC (B. subtilis [1]; 24 h, read-out: MIC antibiotic) was 0.5 µg/mL. The FIC antibiotic (S. aureus) was 0.69 ± 0.32, the “FIC Index” value (S. aureus) was 1.26 ± 0.41 and the MIC (S. aureus; 24 h, read-out: MIC antibiotic) was 15 µg/mL.
In the case of `CN(C)[C@@H]1C(O)=C(C(N)=O)C(=O)[C@@]2(O)C(O)=C3C(=O)c4c(O)cccc4[C@@](C)(O)[C@H]3C[C@@H]12` [Tetracycline, tetracycline], the FIC antibiotic (B. subtilis [1]) is reported as 0.48 ± 0.047, the “FIC Index” value (B. subtilis [1]) is reported as 1.04 ± 0.50 and the MIC (B. subtilis [1]; 24 h, read-out: MIC antibiotic) is reported as 5 µg/mL. The FIC antibiotic (S. aureus) was 0.24 ± 0.11, the “FIC Index” value (S. aureus) was 0.75 ± 0.26 and the MIC (S. aureus; 24 h, read-out: MIC antibiotic) was 0.5 µg/mL.
For `CCCCCCCCOc1cccc(C(=O)Nc2ccc(F)cc2C(=O)O)c1` [Compound 7, 5-Fluoro-2-(3-(octyloxy)benzamido)benzoic acid], the “ED50 B. subtilis cell growth” value (B. subtilis [2]) was 0.14 µg/mL (≈ 0.361 µM), the IC50 (SaUPPS) was 320 nM and the “toxicity against human cell line NCI-H460 (in words)” value (NCI-H460 cells) was “low activity”. For the same compound, the “Mean FICI” value (B. subtilis [1]; [7]) was 0.37 and 0.37 ± 0.14, the “Mean FICI” value (B. subtilis [1]; [8]) was 1.47 and 1.47 ± 0.28 and the “FIC 7” value (B. subtilis [1]; with Ampicillin) was 0.23 ± 0.084. The “FIC 7” value (B. subtilis [1]; with Bacitracin) was 0.36 ± 0.14, the “FIC 7” value (B. subtilis [1]; with Carbenicillin) was 0.15 ± 0.071 and the “FIC 7” value (B. subtilis [1]; with Cefotaxime) was 0.14 ± 0.081. For the same compound, the “FIC 7” value (B. subtilis [1]; with Chloramphenicol) was 0.97 ± 0.42, the “FIC 7” value (B. subtilis [1]; with Fosfomycin) was 0.063 ± 0.022 and the “FIC 7” value (B. subtilis [1]; with Fosmidomycin) was 0.13 ± 0.056. The “FIC 7” value (B. subtilis [1]; with Kanamycin) was 0.71 ± 0.30, the “FIC 7” value (B. subtilis [1]; with Sulfamethoxazole) was 0.94 ± 0.64 and the “FIC 7” value (B. subtilis [1]; with Tetracycline) was 0.57 ± 0.50. The “FIC 7” value (B. subtilis [1]; with Trimethoprim) was 0.85 ± 0.29, the “FIC 7” value (B. subtilis [1]; with Vancomycin) was 0.17 ± 0.063 and the MIC (B. subtilis [1]; read-out: MIC 7) was 1 µg/mL. The “Mean FICI” value (S. aureus; [7]) was 0.32 and 0.32 ± 0.12, the “Mean FICI” value (S. aureus; [8]) was 1.42 and 1.42 ± 0.37 and the “FIC 7” value (S. aureus; with Ampicillin) was 0.15 ± 0.071. The “FIC 7” value (S. aureus; with Bacitracin) was 0.044 ± 0.019, the “FIC 7” value (S. aureus; with Carbenicillin) was 0.077 ± 0.026 and the “FIC 7” value (S. aureus; with Cefotaxime) was 0.084 ± 0.031. For the same compound, the “FIC 7” value (S. aureus; with Chloramphenicol) was 0.81 ± 0.31, the “FIC 7” value (S. aureus; with Fosfomycin) was 0.091 ± 0.034 and the “FIC 7” value (S. aureus; with Kanamycin) was 0.83 ± 0.29. The “FIC 7” value (S. aureus; with Spectinomycin) was 0.81 ± 0.32, the “FIC 7” value (S. aureus; with Sulfamethoxazole) was 0.98 ± 0.37 and the “FIC 7” value (S. aureus; with Tetracycline) was 0.51 ± 0.24. The “FIC 7” value (S. aureus; with Trimethoprim) was 0.57 ± 0.25, the “FIC 7” value (S. aureus; with Vancomycin) was 0.15 ± 0.062 and the MIC (S. aureus; read-out: MIC 7) was 1 µg/mL. For the same compound, the FICI on average ([3]; with known cell wall biosynthesis inhibitors, n=13 cell/inhibitor combinations) was ~ 0.35, the FICI on average ([3]; with non cell-wall biosynthesis inhibitors, n=12 cell/inhibitor combinations) was ~ 1.45 and the ED50 bacterial growth ([4]; abstract, bacterium not specified) was ~ 0.15 μg/mL.
For `CC1(C)S[C@@H]2[C@H](NC(=O)C(C(=O)O)c3ccccc3)C(=O)N2[C@H]1C(=O)O` (some centres unmarked) [Carbenicillin, carbenicillin], the FIC antibiotic (B. subtilis [1]) was 0.22 ± 0.073, the “FIC Index” value (B. subtilis [1]) was 0.37 ± 0.10 and the MIC (B. subtilis [1]; 24 h, read-out: MIC antibiotic) was 5 µg/mL. For the same compound, the FIC antibiotic (S. aureus) was 0.23 ± 0.048, the “FIC Index” value (S. aureus) was 0.30 ± 0.055 and the MIC (S. aureus; 24 h, read-out: MIC antibiotic) was 15 µg/mL.
In the case of `CO/N=C(\C(=O)N[C@@H]1C(=O)N2C(C(=O)O)=C(COC(C)=O)CS[C@H]12)c1csc(N)n1` [Cefotaxime, cefotaxime], the FIC antibiotic (B. subtilis [1]) is reported as 0.17 ± 0.026, the “FIC Index” value (B. subtilis [1]) is reported as 0.31 ± 0.085 and the MIC (B. subtilis [1]; 24 h, read-out: MIC antibiotic) is reported as 2.5 µg/mL. The FIC antibiotic (S. aureus) was 0.18 ± 0.055, the “FIC Index” value (S. aureus) was 0.27 ± 0.063 and the MIC (S. aureus; 24 h, read-out: MIC antibiotic) was 2 µg/mL.
With `O=CN(O)CCCP(=O)(O)O` [Fosmidomycin, fosmidomycin] the FIC antibiotic (B. subtilis [1]) was 0.039 ± 0.0053, the “FIC Index” value (B. subtilis [1]) was 0.17 ± 0.056 and the “FIC Index” value (B. subtilis [1]; listed as fosmidomycin) was 0.17. It also gave an MIC (B. subtilis [1]; 24 h, read-out: MIC antibiotic) of 5 µg/mL.
For `CN[C@H](CC(C)C)C(=O)N[C@H]1C(=O)N[C@@H](CC(N)=O)C(=O)N[C@H]2C(=O)N[C@H]3C(=O)N[C@H](C(=O)N[C@H](C(=O)O)c4cc(O)cc(O)c4-c4cc3ccc4O)[C@H](O)c3ccc(c(Cl)c3)Oc3cc2cc(c3O[C@@H]2O[C@H](CO)[C@@H](O)[C@H](O)[C@H]2O[C@H]2C[C@](C)(N)[C@H](O)[C@H](C)O2)Oc2ccc(cc2Cl)[C@H]1O` [Vancomycin, vancomycin], the FIC antibiotic (B. subtilis [1]) was 0.27 ± 0.24, the “FIC Index” value (B. subtilis [1]) was 0.44 ± 0.25 and the MIC (B. subtilis [1]; 24 h, read-out: MIC antibiotic) was 0.5 µg/mL. For the same compound, the FIC antibiotic (S. aureus) was 0.14 ± 0.034, the “FIC Index” value (S. aureus) was 0.29 ± 0.071 and the MIC (S. aureus; 24 h, read-out: MIC antibiotic) was 1.5 µg/mL.
For `CCCCCCCCCCOc1cccc(C(=O)Nc2ccc([N+](=O)[O-])cc2C(=O)O)c1` [Compound 6, 2-(3-(decyloxy)benzamido)-5-nitrobenzoic acid], the “ED50 against B. subtilis” value (B. subtilis [5]) is listed as 1300 nM, the “activity against E. coli (in words)” value (E. coli) is listed as “no activity” and the IC50 (E. coli UPPS (EcUPPS)) is listed as 3000 nM.
In the case of `CC1(C)S[C@@H]2[C@H](NC(=O)[C@H](N)c3ccccc3)C(=O)N2[C@H]1C(=O)O` [Ampicillin, ampicillin], the FIC antibiotic (B. subtilis [1]) is reported as 0.30 ± 0.072, the “FIC Index” value (B. subtilis [1]) is reported as 0.53 ± 0.11 and the MIC (B. subtilis [1]; 24 h, read-out: MIC antibiotic) is reported as 0.5 µg/mL. For the same compound, the FIC antibiotic (S. aureus) was 0.41 ± 0.17, the “FIC Index” value (S. aureus) was 0.56 ± 0.18 and the MIC (S. aureus; 24 h, read-out: MIC antibiotic) was 0.5 µg/mL.
For “2-(N-Methyl-3-(octyloxy)benzamido)phenylphosphonic acid [Compound 31]”, the “ED50 B. subtilis cell growth” value (B. subtilis [2]) was greater than 100 µg/mL, the IC50 (SaUPPS; read-out: IC50 SaUPPS, 5 μM FPP, 50 μM IPP, pH 7.5) was 39000 nM and the IC50 [6] was 6500 nM. The “antibacterial activity (in words)” value ([4]; S. aureus and B. subtilis cell growth) was “little or no antibacterial activity”.
With `O=C(N[C@H](CO)[C@H](O)c1ccc([N+](=O)[O-])cc1)C(Cl)Cl` [Chloramphenicol, chloramphenicol] the FIC antibiotic (B. subtilis [1]) was 0.75 ± 0.18, the “FIC Index” value (B. subtilis [1]) was 1.72 ± 0.46 and the MIC (B. subtilis [1]; 24 h, read-out: MIC antibiotic) was 0.5 µg/mL. For the same compound, the FIC antibiotic (S. aureus) was 0.88 ± 0.47, the “FIC Index” value (S. aureus) was 1.69 ± 0.56 and the MIC (S. aureus; 24 h, read-out: MIC antibiotic) was 5 µg/mL.
For `C[C@@H]1O[C@@H]1P(=O)(O)O` [Fosfomycin, fosfomycin], the FIC antibiotic (B. subtilis [1]) was 0.16 ± 0.15, the “FIC Index” value (B. subtilis [1]) was 0.22 ± 0.15 and the MIC (B. subtilis [1]; 24 h, read-out: MIC antibiotic) was 200 µg/mL. For the same compound, the FIC antibiotic (S. aureus) was 0.20 ± 0.11 and the MIC (S. aureus; 24 h, read-out: MIC antibiotic) was 200 µg/mL.
For `Cc1cc(NS(=O)(=O)c2ccc(N)cc2)no1` [Sulfamethoxazole, sulfamethoxazole], the FIC antibiotic (B. subtilis [1]) was 0.78 ± 0.21, the “FIC Index” value (B. subtilis [1]) was 1.72 ± 0.67 and the “FIC Index” value (B. subtilis [1]; listed as sulfamethoxazole) was 1.72. For the same compound, the MIC (B. subtilis [1]; 24 h, read-out: MIC antibiotic) was 200 µg/mL, the FIC antibiotic (S. aureus) was 0.54 ± 0.13 and the “FIC Index” value (S. aureus) was 1.53 ± 0.39. It also gave an MIC (S. aureus; 24 h, read-out: MIC antibiotic) of 200 µg/mL.
For `CN[C@@H]1[C@H](O)[C@H](NC)[C@H]2O[C@@]3(O)C(=O)C[C@@H](C)O[C@H]3O[C@@H]2[C@H]1O` [Spectinomycin, spectinomycin], the FIC antibiotic (S. aureus) was 0.75 ± 0.43, the “FIC Index” value (S. aureus) was 1.56 ± 0.54 and the MIC (S. aureus; 24 h, read-out: MIC antibiotic) was 40 µg/mL.

From publication PMC5155509 (ChemMedChem, 2016)
